{"source": "patent US7507739B2", "about": "“6-[(substituted)phenyl]triazolopyrimidines as anticancer agents” (Wyeth, priority 2003, dated 2009)", "assay_type_in_all_cases": "in vivo, athymic mice", "key": {"[1]": {"test_system": "HCT-15 Human Colon Carcinoma", "assay": "Human tumor xenograft test, HCT-15", "conditions": "for T/C on day 0 / T/C on day 7 / T/C on day 13 / T/C on day 20: days 1, 8, 15", "protocol": "(§1) The ability of compounds of this invention to inhibit tumor growth in animals is studied in the athymic mouse xenograft standard pharmacological test. Female nu/nu mice in an outbred albino background are obtained from Charles River Laboratories (Wilmington, Mass.). Animals are injected subcutaneously on the flank with the desired tumor cell suspension. Several days later, mice with tumors of approximately 150 mm^3 are selected from those injected (staged) and randomly distributed into groups of 5-10. The day of staging is called day 0. Compounds of the invention, usually formulated in saline (exceptions are noted in tables), are administered to animals by intravenous injection or oral gavage on various schedules starting on day 0 or 1, as noted in the tables. The control group in each experiment is dosed with vehicle on the same schedule. Tumor size is measured every 3-7 days with calipers in two orthogonal dimensions, and tumor volume is calculated from the formula volume=[(length×width^2)/2].\n(§2) Tumor/Control (T/C) is obtained by dividing the mean tumor volume of the treated group by the mean tumor volume of the control group on each measurement day. A treatment dose is defined as active if it produced a statistically significant T/C of 0.50 or less. A p value≦0.05, determined by one-side Student's t-test, is required for statistical significance. A treatment dose is defined as toxic if more than 10% of the animals died from a compound-related toxicity."}, "[2]": {"test_system": "H157 Human Non-Small Cell Lung Carcinoma", "assay": "Human tumor xenograft test, H157", "conditions": "for T/C on day 0 / T/C on day 7 / T/C on day 11 / T/C on day 14: days 0, 6", "protocol": "as §1, §2"}, "[3]": {"test_system": "HT-29 Human Colon Carcinoma", "assay": "Human tumor xenograft test, HT-29", "protocol": "as §1, §2"}}, "note": "Marks after values point to notes of the source that are not given here."}
{"smiles": "CNCCCOc1cc(F)c(-c2c(Cl)nc3ncnn3c2N[C@@H](C)C(F)(F)F)c(F)c1.Cl", "note": "[Example 2a, 5-Chloro-6-{2,6-difluoro-4-[3-(methylamino)propoxy]phenyl}-N-[(1S)-2,2,2-trifluoro-1-methylethyl][1,2,4]triazolo[1,5-a]pyrimidin-7-amine hydrogen chloride]", "values": [{"measurement": "T/C on day 0", "setting": "[1]; HCT-15, 10 mg/kg IV", "result": 1.00}, {"measurement": "T/C on day 7", "setting": "[1]; HCT-15, 10 mg/kg IV", "result": 0.81}, {"measurement": "T/C on day 13", "setting": "[1]; HCT-15, 10 mg/kg IV", "result": 1.03}, {"measurement": "T/C on day 20", "setting": "[1]; HCT-15, 10 mg/kg IV", "result": 0.75}, {"measurement": "T/C on day 0", "setting": "[1]; HCT-15, 20 mg/kg IV", "result": 1.00}, {"measurement": "T/C on day 7", "setting": "[1]; HCT-15, 20 mg/kg IV", "result": 0.86}, {"measurement": "T/C on day 13", "setting": "[1]; HCT-15, 20 mg/kg IV", "result": "0.50*"}, {"measurement": "T/C on day 20", "setting": "[1]; HCT-15, 20 mg/kg IV", "result": "0.43*"}, {"measurement": "tumor growth inhibition (activity call)", "setting": "[1]; HCT-15, 20 mg/kg intravenously on days 1, 8, and 15", "result": "active"}, {"measurement": "T/C on day 0", "setting": "[1]; HCT-15, 25 mg/kg IV", "result": 1.00}, {"measurement": "T/C on day 7", "setting": "[1]; HCT-15, 25 mg/kg IV", "result": 0.78}, {"measurement": "T/C on day 13", "setting": "[1]; HCT-15, 25 mg/kg IV", "result": 0.60}, {"measurement": "T/C on day 20", "setting": "[1]; HCT-15, 25 mg/kg IV", "result": 0.44}, {"measurement": "T/C on day 0", "setting": "[2]; H157, 7.5 mg/kg IV", "result": 1.04}, {"measurement": "T/C on day 7", "setting": "[2]; H157, 7.5 mg/kg IV", "result": "0.54**"}, {"measurement": "T/C on day 11", "setting": "[2]; H157, 7.5 mg/kg IV", "result": "0.42**"}, {"measurement": "T/C on day 14", "setting": "[2]; H157, 7.5 mg/kg IV", "result": "0.45**"}, {"measurement": "T/C on day 0", "setting": "[2]; H157, 15 mg/kg IV", "result": 1.02}, {"measurement": "T/C on day 7", "setting": "[2]; H157, 15 mg/kg IV", "result": "0.55*"}, {"measurement": "T/C on day 11", "setting": "[2]; H157, 15 mg/kg IV", "result": "0.44*"}, {"measurement": "T/C on day 14", "setting": "[2]; H157, 15 mg/kg IV", "result": "0.42**"}, {"measurement": "T/C on day 0", "setting": "[2]; H157, 25 mg/kg IV", "result": 1.03}, {"measurement": "T/C on day 7", "setting": "[2]; H157, 25 mg/kg IV", "result": "0.62*"}, {"measurement": "T/C on day 11", "setting": "[2]; H157, 25 mg/kg IV", "result": "0.29**"}, {"measurement": "T/C on day 14", "setting": "[2]; H157, 25 mg/kg IV", "result": "0.30**"}, {"measurement": "tumor growth inhibition (activity call)", "setting": "[2]; H157 NSCLC, 25, 15 and 7.5 mg/kg intravenously on days 0 and 6", "result": "inhibited tumor growth"}, {"measurement": "T/C on day 0", "setting": "[3]; HT-29, 25 mg/kg IV, days 1, 7", "result": 1.00}, {"measurement": "T/C on day 7", "setting": "[3]; HT-29, 25 mg/kg IV, days 1, 7", "result": "0.44**"}, {"measurement": "T/C on day 10", "setting": "[3]; HT-29, 25 mg/kg IV, days 1, 7", "result": "0.34**"}, {"measurement": "T/C on day 13", "setting": "[3]; HT-29, 25 mg/kg IV, days 1, 7", "result": "0.26**"}, {"measurement": "T/C on day 21", "setting": "[3]; HT-29, 25 mg/kg IV, days 1, 7", "result": "0.43**"}, {"measurement": "T/C on day 24", "setting": "[3]; HT-29, 25 mg/kg IV, days 1, 7", "result": "0.46**"}, {"measurement": "tumor growth inhibition (activity call)", "setting": "[3]; HT-29, 25 mg/kg intravenously on days 1 and 7", "result": "inhibited the growth"}]}
